Data from paper PMC12389038 (Pharmaceutics, 2025).
Marks after values point to notes of the source that are not given here.

Assays:
T. spiralis female worms = assay: In vitro parasitic assay on T. spiralis female worms; set-up: species or system Trichinella spiralis
Description: CBi mice were orally infected with 10 L1 T. spiralis larvae per gram of body weight and sacrificed on day 6 post-infection (intestinal phase) as described previously. After euthanasia, the small intestine was excised, segmented into equal lengths, and placed in Petri dishes containing 8–12 mL of incubation medium (0.85% NaCl with 250 μg/mL gentamicin). Each segment was opened longitudinally, gently agitated in the medium, and incubated for 4 h at 37 °C in 5% CO2. Following incubation, intestinal pieces were rinsed with medium and discarded. The medium containing released parasites was collected, centrifuged at a low speed, and the pellet was resuspended in 2–3 mL of RPMI 1640 supplemented with 250 μg/mL of gentamicin and 10% fetal bovine serum. Female worms were then isolated under sterile conditions for further assays.
They were stirred at room temperature for 24 h and then filtered through sterile ethyl cellulose 0.2 μm pore filters (Minisart®, Sartorius Stedim Biotech, Göttingen, Germany).
The entire procedure was conducted under sterile conditions as described by Priotti et al.. Female T. spiralis worms obtained as above were incubated overnight in RPMI 1640 supplemented with 250 μg/mL of gentamicin and 10% fetal bovine serum at 37 °C in 5% CO2. […] The MBZ solution served as the positive control, and the culture medium with the solvent served as the negative control. Worms were incubated at 37 °C in a humidified 5% CO2 atmosphere for 30 h and observed under an inverted microscope at 2, 4, 7, 24, and 30 h. Viability was assessed at each time point by motility and morphology to classify worms as live or dead. The number and motility of newborn larvae were also recorded. Median worm survival was analyzed using survival curves. Experiments were performed in duplicate, with data corrected against the negative control.
Survival curves were calculated using Kaplan and Meier’s product limit method (GraphPad Prism® 9.5; GraphPad Software, Inc., San Diego, CA, USA). The significance of the difference among survival curves was determined with the log-rank test.

[1] = background statement, no reference given; cited from earlier work
[2] = tested on: Trichinella spiralis encysted muscle larvae; assay: In vivo therapeutic efficacy in the parenteral stage of T. spiralis infection; set-up: species or system CBi/L and CBi+ mice; settings: for Dead larvae percentage: 15 mg MBZ/kg/day oral days 27, 28, 29 p-i, methylene blue, median (range)
Description: Since CBi/L and CBi+ mice show significant body weight differences, as already stated, adult animals of both sexes were infected orally with an equivalent dose of 2 T. spiralis L1 larvae per g of the host’s body weight. Each animal was weighed before infection, 24–48 h before treatment, and before sacrifice. During the infection course, the general health of each mouse (overall physical condition and behavior) was monitored three times a week.
Six mice per line and sex were randomly assigned to the non-treated control (C) or treated groups (MBZ, NP, or Comp). Seven days after the last dose, mice were sacrificed to quantify encysted muscle larvae in the tongue. The tongue was excised, weighed, and digested overnight at 37 °C in a pepsin–HCl solution. Digestion was interrupted by adding saline, and the larvae were rinsed several times with saline to remove debris. After low-speed centrifugation (250–300 g, 5 min), the supernatant was carefully removed, and the pellet containing larvae was resuspended in 2 mL of saline. Larvae were counted under an optical microscope at 40× magnification using an acrylic plate. Each formulation’s anthelmintic efficacy was assessed by its effect on the larval muscle load (relative larval load: rLL, number of L1 larvae per g fresh tissue). Also, the effect of the formulations on the encysted L1 larvae viability (dead larvae percentage: proportion of dead muscle larvae/total muscle larvae recovered from each animal) was analyzed using the methylene blue supravital staining technique, as already described.

[3] = tested on: Trichinella spiralis encysted muscle larvae; assay: Increasing doses of pure MBZ, therapeutic efficacy in T. spiralis-infected CBi+ mice; type: in vivo; settings: CBi+ males and females, 30 or 45 mg of MBZ/kg, vs control mice or 15 mg of MBZ/kg
Description: As in the experiments described in Section 2.10.2, the pure drug was administered in the parenteral stage of infection on days 27, 28, and 29 p-i. Seven days after the last dose, mice were sacrificed, and the number and viability of the tongue’s encysted muscle larvae were determined to evaluate anthelmintic efficacy.

[4] = Particle size determination (SEM image analysis / Nano Particle Analyzer); type: physicochemical
Description: The particle size of the NP and inclusion complexes was determined by imaging using scanning electron microscopy (Leitz AMR 1600 T [Amray, Bedford, MA, USA]), with an acceleration potential of 20 kV. Samples were sputter-coated with a gold layer to make them conductive. Then, to determine the particle size, scanning electron microscopy images were analyzed using the ImageJ 1x software, a Java-based graphic design program dedicated to image analysis, to estimate size. The particle size of nano-formulations was determined by using a Nano Particle Analyzer Horiba SZ-100 (Kyoto, Japan). Samples were diluted (1:30) in filtered distilled water before measuring.

in vivo = assay: in vivo; set-up: species or system CBi/L and CBi+ mice; settings: mouse, po, 15 mg/kg
Description: Separately, 2.6 g of gelatin powder was dissolved in 10 mL of hot water (60 °C), and 100 μL of this solution was added to each tube before solidification. The mixture was then sonicated in a 60 °C water bath, and 40 mg of powdered commercial chow was added to enhance palatability and ensure complete ingestion. This procedure was developed in our lab and was published in Codina et al..
Following the procedures described by Codina et al., three to four animals per formulation were anesthetized after the drug administration with an intraperitoneal injection of ketamine/xylazine 10:1, 5 min before blood collection. Whole blood (approximately 1.5 mL) samples were taken by cardiac puncture at 0.3, 0.6, 1, 1.2, 2, 2.5, 3, 4, 5, 7, and 24 h post-treatment. Blood was collected into heparinized vials and centrifuged at 9000 rpm for 15 min to obtain plasma, which was transferred to a plastic tube and stored at −20 °C until HPLC analysis.
Briefly, each plasma sample (200 μL) was deproteinized by adding methanol (1 mL), frozen for 30 min at −20 °C, and centrifuged at 15,000 rpm at 4 °C for 12 min. Then, the supernatant was evaporated under vacuum, and the dried samples were stored frozen until analyzed. Samples were reconstituted in 100 μL of the mobile phase and filtered through 0.2 μm polyvinylidene fluoride (PVDF) syringe filters (Agilent, Santa Clara, CA, USA). The mobile phase consisted of 0.05 M of monobasic potassium phosphate buffer and methanol (40:60, v/v). […] Briefly, each plasma sample (200 μL) was treated to eliminate proteins by adding methanol (1 mL), frozen for 30 min at −20 °C, and centrifuged at 15,000 rpm at 4 °C for 12 min. Then, the supernatant was evaporated under a vacuum, and the dried samples were frozen until analyzed. Samples of 25 μL were injected, and the analytes were eluted (flow 1.2 mL/min) from a column Zorbax Eclipse C-18 (150 × 4.6 mm; 5 μm). The absorbance was measured at a wavelength of 247 nm. The analyte retention time was 3.8 ± 0.2 min.
According to regulatory guidelines, the Lower Limit of Quantification (LLOQ) is defined as the lowest concentration of an analyte in a biological matrix that can be quantitatively determined with acceptable precision and accuracy. […] The LLOQ was determined based on the standard deviation of the response at the lowest concentration point, measured in triplicate, and was evaluated for both precision (% CV) and accuracy criteria. […] Consequently, only data up to 7 h were considered for pharmacokinetic analysis.
AUCs were calculated using the trapezoidal rule. Pharmacokinetic parameters were expressed as mean ± SEM. In this section, we report data as mean ± SEM to provide a measure of the central tendency along with the precision of the estimated mean. The standard error of the mean (SEM) is particularly useful for highlighting the reliability of the sample mean as an estimate of the true population mean, which is relevant when evaluating pharmacokinetic (PK) parameters under controlled conditions.

For `COC(=O)Nc1nc2ccc(C(=O)c3ccccc3)cc2[nH]1` [MBZ, Mebendazole], the “Survival Proportion After 30 h” value (T. spiralis female worms; T. spiralis females, 30 h incubation in RPMI 1640) was 79.3%, the “Median Survival” value (T. spiralis female worms; T. spiralis females, 30 h incubation in RPMI 1640, Kaplan–Meier) was “Undefined” and the “Effect on mobility of T. spiralis newborn larvae” value (T. spiralis female worms; larvae released by females exposed to the antiparasitic solutions, 30 h) was “Neither MBZ nor the formulations affected the mobility”. The Oral bioavailability [1] was “approximately 20%”, the Dead larvae percentage ([2]; CBi+ female) was 5 (5–11) ^a % and the Dead larvae percentage ([2]; CBi+ male) was 11 (7–75) ^a %. For the same compound, the Dead larvae percentage ([2]; CBi/L female) was 15 (6–25) ^b %, the Dead larvae percentage ([2]; CBi/L male) was 27 (7–75) ^b % and the “Number of muscle larvae recovered compared to control animals” value ([2]; pure MBZ 15 mg/kg on days 27, 28, and 29 p-i) was “did not reduce the number of muscle larvae recovered”. The “Decrease in muscle rLL” value [3] was 40%, the “Particle Size (mean diameter)” value [4] was 10.4 ± 6.9 µm and the AUC(0-t) (in vivo; female, CBi+) was 600 ± 80 ng·h/mL. The Cmax (in vivo; female, CBi+) was 200 ± 20 ng/mL, the Tmax (in vivo; female, CBi+) was 39.6 min and the AUC(0-t) (in vivo; female, CBi/L) was 3900 ± 630 ng·h/mL. It also gave a Cmax (in vivo; female, CBi/L) of 1300 ± 260 ng/mL, a Tmax (in vivo; female, CBi/L) of 39.6 min and an AUC(0-t) (in vivo; male, CBi+) of 400 ± 200 ng·h/mL. For the same compound, the Cmax (in vivo; male, CBi+) was 300 ± 110 ng/mL, the Tmax (in vivo; male, CBi+) was 39.6 min and the AUC(0-t) (in vivo; male, CBi/L) was 2700 ± 820 ng·h/mL. It also gave a Cmax (in vivo; male, CBi/L) of 1300 ± 310 ng/mL and a Tmax (in vivo; male, CBi/L) of 39.6 min.
